Data from PubChem BioAssay AID1963966 (Molecular Pharmacology Branch, DTP, NCI, 2024).
pIC50: −log10 of the molar value.

Test system: 935938-334-R-J1-PDC spheroids with HUVEC/MSC, viability
Test: Anticancer human tumor 935938-334-R-J1-PDC patient-derived small intestine adenocarcinoma cell line growth inhibition [PI3K]
Conditions: for pIC50: curve of first compound; for viability, T/C: stronger effect = lower value; active = viability on the fitted dose curve at most 10% of control; inactive = the rest
Summary of the method: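 Targeted small molecules plus PI3K inhibitors, half-log dose series from Cmax (default top 10 microM), were applied to heterotypic spheroids of cancer cells with HUVEC and MSCs. Viability indicated growth inhibition.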

[1] = second compound 0.00316 µM, first compound 0.0316 µM
[2] = second compound 0.00316 µM, first compound 0.1 µM
[3] = second compound 0.00316 µM, first compound 0.316 µM
[4] = second compound 0.00316 µM, first compound 1 µM
[5] = second compound 0.00316 µM, first compound 3.16 µM
[6] = second compound 0.00316 µM, first compound 10 µM
[7] = second compound 0.01 µM, first compound 0.0316 µM
[8] = second compound 0.01 µM, first compound 0.1 µM
[9] = second compound 0.01 µM, first compound 0.316 µM
[10] = second compound 0.01 µM, first compound 1 µM
[11] = second compound 0.01 µM, first compound 3.16 µM
[12] = second compound 0.01 µM, first compound 10 µM
[13] = second compound 0.0316 µM, first compound 0.0316 µM
[14] = second compound 0.0316 µM, first compound 0.1 µM
[15] = second compound 0.0316 µM, first compound 0.316 µM
[16] = second compound 0.0316 µM, first compound 1 µM
[17] = second compound 0.0316 µM, first compound 3.16 µM
[18] = second compound 0.0316 µM, first compound 10 µM
[19] = second compound 0.1 µM, first compound 0.0316 µM
[20] = second compound 0.1 µM, first compound 0.1 µM
[21] = second compound 0.1 µM, first compound 0.316 µM
[22] = second compound 0.1 µM, first compound 1 µM
[23] = second compound 0.1 µM, first compound 3.16 µM
[24] = second compound 0.1 µM, first compound 10 µM
[25] = second compound 0.316 µM, first compound 0.0316 µM
[26] = second compound 0.316 µM, first compound 0.1 µM
[27] = second compound 0.316 µM, first compound 0.316 µM
[28] = second compound 0.316 µM, first compound 1 µM
[29] = second compound 0.316 µM, first compound 3.16 µM
[30] = second compound 0.316 µM, first compound 10 µM
[31] = second compound 1 µM, first compound 0.0316 µM
[32] = second compound 1 µM, first compound 0.1 µM
[33] = second compound 1 µM, first compound 0.316 µM
[34] = second compound 1 µM, first compound 1 µM
[35] = second compound 1 µM, first compound 3.16 µM
[36] = second compound 1 µM, first compound 10 µM
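Also: compound exposure lasted seven days before viability was read.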
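For viability, T/C in this document: percent of vehicle DMSO treated spheroid viability so 100% = untreated.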

C#Cc1c(F)ccc2cc(O)cc(-c3ncc4c(N5CC6CCC(C5)N6)nc(OCC56CCCN5CC(F)C6)nc4c3F)c12 (stereo not drawn) + COc1c(OCCCN2CCOCC2)ccc2c3n(c(=NC(=O)c4cnc(N)nc4)nc12)CCN3
6.23: pIC50 (second compound 0.0316 µM)
inactive: viability, T/C [1] 97.9% | viability, T/C [2] 91.9% | viability, T/C [3] 75.3% | viability, T/C [4] 70.9% | viability, T/C [5] 57% | viability, T/C [6] 40.7% | viability, T/C [7] 101% | viability, T/C [8] 86.4% | viability, T/C [9] 103% | viability, T/C [10] 65.2% | viability, T/C [11] 46.5% | viability, T/C [12] 29.2% | viability, T/C [13] 66.4% | viability, T/C [14] 72.4% | viability, T/C [15] 53.6% | viability, T/C [16] 44.4% | viability, T/C [17] 31% | viability, T/C [18] 22.5% | viability, T/C [19] 57.5% | viability, T/C [20] 46.2% | viability, T/C [21] 39.9% | viability, T/C [22] 23% | viability, T/C [23] 24.2% | viability, T/C [24] 21.8% | viability, T/C [25] 34.4% | viability, T/C [26] 29.5% | viability, T/C [27] 27.7% | viability, T/C [28] 25.1% | viability, T/C [29] 25.6% | viability, T/C [30] 19.9% | viability, T/C [31] 27.3% | viability, T/C [32] 30.4% | viability, T/C [33] 34.1% | viability, T/C [34] 24.6% | viability, T/C [35] 22.2% | viability, T/C [36] 23.9%
5.65: pIC50 (second compound 0.01 µM)
7.09: pIC50 (second compound 0.1 µM)
> 7.50: pIC50 (second compound 0.316 µM) | pIC50 (second compound 1 µM)
5.29: pIC50 (second compound 0.00316 µM)

CC(Cn1ccc(-c2ccc(C#N)c(Cl)c2)n1)NC(=O)c1cc(C(C)O)[nH]n1 (stereo not drawn) + COc1c(OCCCN2CCOCC2)ccc2c3n(c(=NC(=O)c4cnc(N)nc4)nc12)CCN3
5.99: pIC50 (second compound 0.1 µM)
inactive: viability, T/C [1] 98% | viability, T/C [2] 87.8% | viability, T/C [3] 84.1% | viability, T/C [4] 89.2% | viability, T/C [5] 121% | viability, T/C [6] 107% | viability, T/C [7] 97.6% | viability, T/C [8] 95.2% | viability, T/C [9] 88.1% | viability, T/C [10] 77.2% | viability, T/C [11] 99.4% | viability, T/C [12] 78.7% | viability, T/C [13] 75.8% | viability, T/C [14] 61.2% | viability, T/C [15] 88.5% | viability, T/C [16] 79% | viability, T/C [17] 89.1% | viability, T/C [18] 67.1% | viability, T/C [19] 40.6% | viability, T/C [20] 57.2% | viability, T/C [21] 54.6% | viability, T/C [22] 49.9% | viability, T/C [23] 41.2% | viability, T/C [24] 33% | viability, T/C [25] 36.6% | viability, T/C [26] 35.6% | viability, T/C [27] 29.5% | viability, T/C [28] 36% | viability, T/C [29] 33.9% | viability, T/C [30] 30.8% | viability, T/C [31] 35.8% | viability, T/C [32] 39% | viability, T/C [33] 43.6% | viability, T/C [34] 39.9% | viability, T/C [35] 31.4% | viability, T/C [36] 28.9%
< 5.00: pIC50 (second compound 0.00316 µM) | pIC50 (second compound 0.01 µM) | pIC50 (second compound 0.0316 µM)
> 7.50: pIC50 (second compound 0.316 µM) | pIC50 (second compound 1 µM)

CC1(C)CCC(Nc2ncc(C(F)(F)F)c(-c3c[nH]c4c(P(C)(C)=O)c(C#N)ccc34)n2)CN1 (stereo not drawn) + COc1c(OCCCN2CCOCC2)ccc2c3n(c(=NC(=O)c4cnc(N)nc4)nc12)CCN3
inactive: viability, T/C [1] 47.8% | viability, T/C [2] 35.4% | viability, T/C [3] 35% | viability, T/C [4] 33% | viability, T/C [5] 37.3% | viability, T/C [6] 8.87% | viability, T/C [7] 40.9% | viability, T/C [8] 34.9% | viability, T/C [9] 30.1% | viability, T/C [10] 34.6% | viability, T/C [11] 29.6% | viability, T/C [12] 8.72% | viability, T/C [13] 30.4% | viability, T/C [14] 35.4% | viability, T/C [15] 33.1% | viability, T/C [16] 27.5% | viability, T/C [17] 34.2% | viability, T/C [18] 6.35% | viability, T/C [19] 35% | viability, T/C [20] 22.9% | viability, T/C [21] 20.2% | viability, T/C [22] 23.8% | viability, T/C [23] 25.7% | viability, T/C [24] 6.52% | viability, T/C [25] 25% | viability, T/C [26] 21% | viability, T/C [27] 22.8% | viability, T/C [28] 22.1% | viability, T/C [29] 23.3% | viability, T/C [30] 4.96% | viability, T/C [31] 18.2% | viability, T/C [32] 24.7% | viability, T/C [33] 15.8% | viability, T/C [34] 24.9% | viability, T/C [35] 19% | viability, T/C [36] 3.4%
> 7.50: pIC50 (second compound 0.00316 µM) | pIC50 (second compound 0.01 µM) | pIC50 (second compound 0.0316 µM) | pIC50 (second compound 0.1 µM) | pIC50 (second compound 0.316 µM) | pIC50 (second compound 1 µM)

Cn1cnc2c(F)c(Nc3ccc(Br)cc3Cl)c(C(=O)NOCCO)cc21 + Cc1nc(NC(=O)N2CCCC2C(N)=O)sc1-c1ccnc(C(C)(C)C(F)(F)F)c1
7.54: pIC50 (second compound 0.316 µM)
inactive: viability, T/C (second compound 0.0316 µM, first compound 0.00949 µM) 62% | viability, T/C (second compound 0.0316 µM, first compound 0.03 µM) 54.8% | viability, T/C (second compound 0.0316 µM, first compound 0.0949 µM) 32.8% | viability, T/C (second compound 0.0316 µM, first compound 0.3 µM) 31.1% | viability, T/C (second compound 0.0316 µM, first compound 0.949 µM) 20.4% | viability, T/C (second compound 0.0316 µM, first compound 3 µM) 22.9% | viability, T/C (second compound 0.1 µM, first compound 0.00949 µM) 73.7% | viability, T/C (second compound 0.1 µM, first compound 0.03 µM) 44.7% | viability, T/C (second compound 0.1 µM, first compound 0.0949 µM) 41.4% | viability, T/C (second compound 0.1 µM, first compound 0.3 µM) 25.8% | viability, T/C (second compound 0.1 µM, first compound 0.949 µM) 23.6% | viability, T/C (second compound 0.1 µM, first compound 3 µM) 17.2% | viability, T/C (second compound 0.316 µM, first compound 0.00949 µM) 62.9% | viability, T/C (second compound 0.316 µM, first compound 0.03 µM) 48.5% | viability, T/C (second compound 0.316 µM, first compound 0.0949 µM) 36.9% | viability, T/C (second compound 0.316 µM, first compound 0.3 µM) 23% | viability, T/C (second compound 0.316 µM, first compound 0.949 µM) 18.6% | viability, T/C (second compound 0.316 µM, first compound 3 µM) 17.3% | viability, T/C (second compound 1 µM, first compound 0.00949 µM) 52.9% | viability, T/C (second compound 1 µM, first compound 0.03 µM) 37% | viability, T/C (second compound 1 µM, first compound 0.0949 µM) 26.4% | viability, T/C (second compound 1 µM, first compound 0.3 µM) 19.4% | viability, T/C (second compound 1 µM, first compound 0.949 µM) 14.2% | viability, T/C (second compound 1 µM, first compound 3 µM) 12.6% | viability, T/C (second compound 3.16 µM, first compound 0.00949 µM) 30.8% | viability, T/C (second compound 3.16 µM, first compound 0.03 µM) 39.6% | viability, T/C (second compound 3.16 µM, first compound 0.0949 µM) 19.6% | viability, T/C (second compound 3.16 µM, first compound 0.3 µM) 17.2% | viability, T/C (second compound 3.16 µM, first compound 0.949 µM) 18.5% | viability, T/C (second compound 3.16 µM, first compound 3 µM) 11.1% | viability, T/C (second compound 10 µM, first compound 0.00949 µM) 28.7% | viability, T/C (second compound 10 µM, first compound 0.03 µM) 20.5% | viability, T/C (second compound 10 µM, first compound 0.0949 µM) 17.2% | viability, T/C (second compound 10 µM, first compound 0.3 µM) 14.8% | viability, T/C (second compound 10 µM, first compound 0.949 µM) 14.8% | viability, T/C (second compound 10 µM, first compound 3 µM) 12.1%
7.53: pIC50 (second compound 0.1 µM)
7.94: pIC50 (second compound 1 µM)
7.43: pIC50 (second compound 0.0316 µM)
> 8.02: pIC50 (second compound 3.16 µM) | pIC50 (second compound 10 µM)
